Legend:
[1] = target: T1, JAK2 (Homo sapiens, UniProt O60674); assay: Z'-LYTE kinase assay JAK2; format: biochemical
T1 construct: 5 μl of catalytic domain recombinant Kinase enzyme+Tyr peptide substrate (Invitrogen, CA); purchased Invitrogen
Summary of the method: (§1)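 Z′-LYTE FRET, Tyr6 peptide, recombinant catalytic domain + ATP, 1 h RT, 1% DMSO final, duplicates; protease development 1 h RT; fluorescence read.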

[2] = tested on: JAK1/3 signaling to STAT6 in Ramos B cells; assay: IL4 stimulation of JAK1/3 signaling to STAT6 in Ramos B cells (pSTAT6 Y641, FACS); format: cell-based; details: Homo sapiens; for inhibition at 1 µM: 1.0 uM compound, read-out: IL-4/STAT6 in Ramos Percent Inhibition at 1.0 uM; for inhibition at 0.2 µM: 0.2 uM compound, read-out: IL-4/STAT6 in Ramos Percent Inhibition at 0.2 uM
Experimental: IL4 stimulation of JAK1/3 signaling to STATE in Ramos B cells:
As an alternative strategy to measure effect of JAK3 inhibitors on JAK1/3 dependent cytokine signaling pathways, IL4 stimulation of the Ramos Burkett's B cell line is used. IL4 engages a receptor consisting of the IL4 receptor alpha chain and the common gamma chain. […] Ramos B cells are suspended in tissue culture media containing 10% fetal calf serum at 10×10̂6 cells/ml. 100 μl aliquots are pre-treated for 1 hour with various concentrations of compound, and then stimulated for 15 minutes with 15 ng IL4. The signaling reaction is terminated by fixing in 2% paraformaldehyde for 10 minutes at room temperature. Fixed cells are then washed and permeablized by suspension in 100% methanol at −80° C. Following overnight incubation at 4° C., cells are washed and resuspended in PBS containing 0.5% bovine serum albumin containing pSTAT6 Y641-PE conjugated antibody. After 1 hour incubation, cells are washed and the extent of STAT6 phosphorlyation in Ramos cells is measured by FACS analysis.

[3] = target: T2, JAK3 (Homo sapiens, UniProt P52333); assay: Z'-LYTE kinase assay JAK3; format: biochemical
T2 construct: 5 μl of catalytic domain recombinant Kinase enzyme+Tyr peptide substrate (Invitrogen, CA); purchased Invitrogen
T2 sequence (P52333 822-1111 limits assumed): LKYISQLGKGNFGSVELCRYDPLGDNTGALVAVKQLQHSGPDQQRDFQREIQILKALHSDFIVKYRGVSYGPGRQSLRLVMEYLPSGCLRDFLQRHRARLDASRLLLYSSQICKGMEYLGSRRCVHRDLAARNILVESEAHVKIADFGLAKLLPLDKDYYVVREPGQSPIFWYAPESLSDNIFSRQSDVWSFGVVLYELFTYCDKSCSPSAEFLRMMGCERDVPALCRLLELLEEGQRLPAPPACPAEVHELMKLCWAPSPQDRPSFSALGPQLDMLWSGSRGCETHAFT
Summary of the method: as §1

[4] = target: T3, JAK1 (Homo sapiens, UniProt P23458); assay: Z'-LYTE kinase assay JAK1; format: biochemical
T3 construct: 5 μl of catalytic domain recombinant Kinase enzyme+Tyr peptide substrate (Invitrogen, CA); purchased Invitrogen
T3 sequence (P23458 875-1153 limits assumed): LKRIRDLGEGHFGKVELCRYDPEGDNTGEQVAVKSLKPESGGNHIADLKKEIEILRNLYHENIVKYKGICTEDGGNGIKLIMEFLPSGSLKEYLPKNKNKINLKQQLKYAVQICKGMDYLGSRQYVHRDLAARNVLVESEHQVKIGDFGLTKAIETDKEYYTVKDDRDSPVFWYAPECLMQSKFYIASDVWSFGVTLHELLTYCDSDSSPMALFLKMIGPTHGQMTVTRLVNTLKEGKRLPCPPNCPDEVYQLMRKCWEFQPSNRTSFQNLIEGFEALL
Summary of the method: as §1

T1 sequence (O60674 849-1124 limits assumed): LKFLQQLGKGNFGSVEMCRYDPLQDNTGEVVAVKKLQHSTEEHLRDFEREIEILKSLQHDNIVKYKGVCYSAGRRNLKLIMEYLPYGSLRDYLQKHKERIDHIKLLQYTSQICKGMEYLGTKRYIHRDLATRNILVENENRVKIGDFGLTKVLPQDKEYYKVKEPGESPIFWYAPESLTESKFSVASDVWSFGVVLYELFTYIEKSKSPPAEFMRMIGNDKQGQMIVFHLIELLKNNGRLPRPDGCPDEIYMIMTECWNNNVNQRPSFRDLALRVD

| IC50 [1] [µM] | IC50 [3] [µM] | IC50 [4] [µM] | SMILES | inhibition at 1 µM [2] [%] | inhibition at 0.2 µM [2] [%] |
| --- | --- | --- | --- | --- | --- |
| 0.1 to 1 | 0.01 to 0.1 | > 1 | NC(=O)c1cnc(Nc2cccc(N3CCCCC3)c2)cc1NCc1cccc(F)c1 [Example 68, 4-(3-fluorobenzylamino)-6-(3-(piperidin-1-yl)phenylamino)nicotinamide] | 7 |  |
| > 1 | 0.01 to 0.1 | > 1 | NC(=O)c1cnc(Nc2cccc(N3CCCCC3)c2)cc1N[C@H](CO)c1ccccc1 [Example 76, (S)-4-(2-hydroxy-1-phenylethylamino)-6-(3-(piperidin-1-yl)phenylamino)nicotinamide] | 20 | 8 |
| 0.1 to 1 | 0.01 to 0.1 | 0.1 to 1 | COc1ccc(Nc2cc(NCc3c(F)cccc3F)c(C(N)=O)cn2)cc1 [Example 82, 4-(2,6-difluorobenzylamino)-6-(4-methoxyphenylamino)nicotinamide] | 34 | 7 |
| 0.1 to 1 | 0.01 to 0.1 | 0.1 to 1 | COc1ccc(Nc2cc(NCc3cc(F)ccc3F)c(C(N)=O)cn2)cc1 [Example 83, 4-(2,5-difluorobenzylamino)-6-(4-methoxyphenylamino)nicotinamide] | 23 | 10 |
| 0.1 to 1 | 0.01 to 0.1 | > 1 | NC(=O)c1cnc(Nc2ccc3c(c2)NC(=O)CO3)cc1NCc1ccccc1 [Example 84, 4-(benzylamino)-6-(3-oxo-3,4-dihydro-2H-benzo[b][1,4]oxazin-6-ylamino)nicotinamide] | 8 | 3 |
| 0.1 to 1 | 0.01 to 0.1 | > 1 | COc1ccc(Nc2cc(NCc3cccc(F)c3)c(C(N)=O)cn2)cc1 [Example 91, 4-(3-fluorobenzylamino)-6-(4-methoxyphenylamino)nicotinamide] | 16 | 6 |
| 0.1 to 1 | 0.1 to 1 | > 1 | CN(C(=O)C1CC1)c1ccc(Nc2cc(NCc3cccc4cc[nH]c34)c(C(N)=O)cn2)cc1 [Example 478, 4-((1H-indol-7-yl)methylamino)-6-(4-(N-methylcyclopropanecarboxamido)phenylamino)nicotinamide] |  |  |
| 0.1 to 1 | 0.01 to 0.1 | 0.1 to 1 | COC(=O)N(C)c1ccc(Nc2cc(NCc3cncc(F)c3)c(C(N)=O)cn2)cc1 [Example 479] |  |  |
| 0.1 to 1 | 0.01 to 0.1 | > 1 | CCC(=O)N(C)c1ccc(Nc2cc(NCc3cncc(F)c3)c(C(N)=O)cn2)cc1 [Example 480, 4-((5-fluoropyridin-3-yl)methylamino)-6-(4-(N-methylpropionamido)phenylamino)nicotinamide] |  |  |
| 0.1 to 1 | 0.01 to 0.1 | 0.1 to 1 | CN(C(=O)C1CC1)c1ccc(Nc2cc(NCc3cncc(F)c3)c(C(N)=O)cn2)cc1 [Example 481, 4-((5-fluoropyridin-3-yl)methylamino)-6-(4-(N-methylcyclopropanecarboxamido)phenylamino)nicotinamide] |  |  |
| 0.1 to 1 | 0.01 to 0.1 | > 1 | CC(=O)N(C)c1ccc(Nc2cc(NCc3cncc(F)c3)c(C(N)=O)cn2)cc1 [Example 483, 4-((5-fluoropyridin-3-yl)methylamino)-6-(4-(N-methylacetamido)phenylamino)nicotinamide] |  |  |
| 0.1 to 1 | 0.001 to 0.01 | 0.1 to 1 | CC(=O)Nc1ccc(Nc2cc(NCc3cncc(F)c3)c(C(N)=O)cn2)cc1 [Example 484, 6-(4-acetamidophenylamino)-4-((5-fluoropyridin-3-yl)methylamino)nicotinamide] |  |  |
| 0.1 to 1 | 0.01 to 0.1 | > 1 | CC(=O)N(C)c1ccc(Nc2cc(NCc3cccc(F)n3)c(C(N)=O)cn2)cc1 [Example 485, 4-((6-fluoropyridin-2-yl)methylamino)-6-(4-(N-methylacetamido)phenylamino)nicotinamide] |  |  |
| 0.1 to 1 | 0.01 to 0.1 | 0.1 to 1 | CC(=O)Nc1ccc(Nc2cc(NCc3cccc(F)n3)c(C(N)=O)cn2)cc1 [Example 486, 6-(4-acetamidophenylamino)-4-((6-fluoropyridin-2-yl)methylamino)nicotinamide] |  |  |

Second part, the molecule before the results:

| SMILES | IC50 [1] [µM] | IC50 [3] [µM] | IC50 [4] [µM] | inhibition at 1 µM [2] [%] | inhibition at 0.2 µM [2] [%] |
| --- | --- | --- | --- | --- | --- |
| NC(=O)c1cnc(Nc2ccc(C(=O)N3CCC3)cc2)cc1NCc1cc(F)ccc1F [Example 93, 6-(4-(azetidine-1-carbonyl)phenylamino)-4-(2,5-difluorobenzylamino)nicotinamide] | 0.01 to 0.1 | 0.001 to 0.01 | 0.01 to 0.1 | 76 | 43 |
| NC(=O)c1cnc(Nc2cccc(OCCN3CCOCC3)c2)cc1NC(CO)c1ccccc1 (stereo not shown) [Example 230] |  |  |  | 36 | 21 |
| CC(=O)N1CCN(c2ccc(Nc3cc(NC(CO)c4ccccc4)c(C(N)=O)cn3)cc2)CC1 (stereo not shown) [Example 231] |  |  |  | 16 | 13 |
| NC(=O)c1cnc(Nc2cccc(NC(=O)N3CCOCC3)c2)cc1NCc1cccnc1 [Example 232] |  |  |  | 5 | 4 |
| CN(C(=O)C1CC1)c1ccc(Nc2cc(NCc3cccc4[nH]ccc34)c(C(N)=O)cn2)cc1 [Example 476, 4-((1H-indol-4-yl)methylamino)-6-(4-(N-methylcyclopropanecarboxamido)phenylamino)nicotinamide] | 0.01 to 0.1 | 0.001 to 0.01 | 0.01 to 0.1 |  |  |
| CCC(=O)N(C)c1ccc(Nc2cc(NCc3cccc4cc[nH]c34)c(C(N)=O)cn2)cc1 [Example 477, 4-((1H-indol-7-yl)methylamino)-6-(4-(N-methylpropionamido)phenylamino)nicotinamide] | 0.1 to 1 | 0.01 to 0.1 | > 1 |  |  |
| COC(=O)N(C)c1ccc(Nc2cc(NCc3cccc4cc[nH]c34)c(C(N)=O)cn2)cc1 [Example 482, methyl 4-(4-((1H-indol-7-yl)methylamino)-5-carbamoylpyridin-2-ylamino)phenyl(methyl)carbamate] | > 1 | 0.01 to 0.1 | > 1 |  |  |
| COC(=O)N(C)c1ccc(Nc2cc(NCc3cccc(F)n3)c(C(N)=O)cn2)cc1 [Example 487] | 0.1 to 1 | 0.01 to 0.1 | 0.1 to 1 |  |  |
| CCC(=O)N(C)c1ccc(Nc2cc(NCc3cccc(F)n3)c(C(N)=O)cn2)cc1 [Example 488, 4-((6-fluoropyridin-2-yl)methylamino)-6-(4-(N-methylpropionamido)phenylamino)nicotinamide] | 0.1 to 1 | 0.01 to 0.1 | 0.1 to 1 |  |  |
| CN(C(=O)C1CC1)c1ccc(Nc2cc(NCc3cccc(F)n3)c(C(N)=O)cn2)cc1 [Example 489, 4-((6-fluoropyridin-2-yl)methylamino)-6-(4-(N-methylcyclopropanecarboxamido)phenylamino)nicotinamide] | 0.1 to 1 | 0.01 to 0.1 | 0.1 to 1 |  |  |
| CCC(=O)N1CC(c2ccc(Nc3cc(NCc4cccc(F)n4)c(C(N)=O)cn3)cc2)C1 [Example 490, 4-((6-fluoropyridin-2-yl)methylamino)-6-(4-(1-propionylazetidin-3-yl)phenylamino)nicotinamide] | 0.1 to 1 | 0.01 to 0.1 | 0.1 to 1 |  |  |
| CCC(=O)N1CC(c2ccc(Nc3cc(NCc4cccc5ccsc45)c(C(N)=O)cn3)cc2)C1 [Example 491, 4-(benzo[b]thiophen-7-ylmethylamino)-6-(4-(1-propionylazetidin-3-yl)phenylamino)nicotinamide] | 0.01 to 0.1 | 0.001 to 0.01 | 0.1 to 1 |  |  |
| CCC(=O)N1CC(c2ccc(Nc3cc(NCc4cccc5[nH]ccc45)c(C(N)=O)cn3)cc2)C1 [Example 492, 4-((1H-indol-4-yl)methylamino)-6-(4-(1-propionylazetidin-3-yl)phenylamino)nicotinamide] | 0.001 to 0.01 | 0.001 to 0.01 | 0.01 to 0.1 |  |  |
| COCC(=O)N1CC(c2ccc(Nc3cc(NCc4cccc(F)n4)c(C(N)=O)cn3)cc2)C1 [Example 493, 4-((6-fluoropyridin-2-yl)methylamino)-6-(4-(1-(2-methoxyacetyl)azetidin-3-yl)phenylamino)nicotinamide] | 0.1 to 1 | 0.01 to 0.1 | 0.1 to 1 |  |  |
| COCC(=O)N1CC(c2ccc(Nc3cc(NCc4cccc5[nH]ccc45)c(C(N)=O)cn3)cc2)C1 [Example 494, 4-((1H-indol-4-yl)methylamino)-6-(4-(1-(2-methoxyacetyl)azetidin-3-yl)phenylamino)nicotinamide] | 0.001 to 0.01 | < 0.001 | 0.001 to 0.01 |  |  |
| COCC(=O)N1CC(c2ccc(Nc3cc(NCc4cccc5ccsc45)c(C(N)=O)cn3)cc2)C1 [Example 495, 4-(benzo[b]thiophen-7-ylmethylamino)-6-(4-(1-(2-methoxyacetyl)azetidin-3-yl)phenylamino)nicotinamide] | 0.01 to 0.1 | 0.001 to 0.01 | 0.1 to 1 |  |  |
